Assay results as given in paper PMC10824269 (Journal of the American Chemical Society, 2021).

Target: GsTyDC/DDC (Gloriosa superba, UniProt A0A7D5Q853)
Format: cell-based
Conditions: leaves of N. benthamiana

N[C@@H](Cc1ccc(O)c(O)c1)C(=O)O [L-DOPA]
LC-MS, transient expression in N. benthamiana: GsTyDC/DDC is capable of acting on act on either L-Tyr or L-DOPA (Figure S15)
